From patent US5283246A, “Trimetazidine compounds” (Adir et Compagnie, priority 1991, dated 1994)

Experiments:
cardiac cells = assay: Oxidative necrosis of cardiac cells induced by hypoxanthine/xanthine-oxidase (XO + HX); format: cell-based, rat (newborn); settings: Rattus norvegicus, 4 h; for activity at 10 µM: 10^-5 M, read-out: necrosis index of cardiac cells, XO + HX, compound 10^-5 M; for activity at 10 µM / activity at 1 µM / activity at 0.1 µM: XO + HX, control XO + HX = 100.0; for activity at 1 µM: 10^-6 M, read-out: necrosis index of cardiac cells, XO + HX, compound 10^-6 M; for activity at 0.1 µM: 10^-7 M, read-out: necrosis index of cardiac cells, XO + HX, compound 10^-7 M; for minimal effective concentration: XO + HX induced oxidative necrosis, read-out: concentration at which compounds prove to be protective against necrosis
Procedure: The cardiac cells of newborn rats are used between the 5th and 6th days after placing in culture. Oxidative necrosis is induced by the free radical-producing enzymatic system hypoxanthine (HX, 1 -mm) and xanthineoxidase (XO, 10 mU/ml). The necrosis is evaluated 4 hours after the addition of XO/HX by measuring by spectrophotometry the cytosolic α-hydroxybutyrate dehydrogenase (a-HBDH) activity liberated in the supernatant. The cells are treated with the test compounds 16 hours and 1 hour before the beginning of the experiment after renewing the medium. At the beginning of the experiment, the treatment is carried out again one last time.
Table 3 lists the necrosis indices of cardiac cells induced by the hypoxanthine/xanthine-oxidase system alone or in the presence of increasing concentrations of the compounds of the invention.

human LDLs = assay: Modification of human LDLs by copper sulphate (lipid peroxidation, MDA production); format: biochemical; settings: copper sulphate 5×10^-6 M, 24 hours; read-out: IC50, inhibition of copper-induced modification (MDA production) of human LDLs
Procedure: Human LDLs are incubated for 24 hours in the presence of copper sulphate (5×10^-6 M) and in the absence or presence of the compounds tested (10^-7 M to 10^-4 M). After incubation, the peroxidation of the LDLs is evaluated by electrophoresis on agar gel and by the formation of one of the products of lipid peroxidation malonic dialdehyde (MDA), (Parthasarathy S., Young S. G., Witztum J. L., Pittman R. C. and Steinberg, D.; J. Clin. invest. 77; 641-644, 1986).
The activity of the tested compounds is evaluated by calculating those concentrations (IC50) that reduce the production of MDA by 50% compared with control experiments in the absence of the tested compound.

rat aorta = assay: Study on isolated vessels: vascular relaxing effect on a rat aorta contracted by potassium (80 mM); parameters: species or system Wistar rat; settings: rat aorta rings without endothelium contracted by potassium (80 mM)
Procedure: The thoracic aorta of Wistar rats (325-375 g) that have been anaesthetized by the intraperitoneal route with sodium pentobarbital (30 mg/kg) is removed and dissected into rings 3 mm in length; the endothelium is removed by gentle abrasion using a piece of wood. Each ring is connected to a Statham pressure sensor (UC2-Gould). The initial pressure applied is 2.5 g. The physiological solution used, maintained at 37° C., has the following composition (mM): NaCl 112; KCl 5; KH2 PO4 1; MgSO4 1.2; CaCl2 2.5; NaHCO3 25; glucose 11.; EDTA 0.026. After a stabilization period of 90 minutes, the aorta rings are subjected to a hyperpotassic medium (80 MM KCl and 37 mM NaCl). When the contraction is stable, cumulative concentrations of compound are added to the medium every 15 minutes. The relaxation values obtained enable calculation of the IC50.

isolated hearts of rats = assay: Hypoxia reoxygenation on the isolated heart of a rat; parameters: species or system Wistar rat; settings: for functional recovery of the hearts during reoxygenation / reduction of the developing contracture at the end of 30 minutes reoxygenation: Example 1 at 3×10^-7 M, 10 at 10^-7 M, 13 at 7×10^-7 M; for functional recovery of the hearts during reoxygenation: 40% in the control experiments; for reduction of the developing contracture at the end of 30 minutes reoxygenation: vs control; for Contracture, hypoxia 10 min / Contracture, hypoxia 30 min / Contracture, hypoxia 60 min / Contracture, reoxygenation 15 min / Contracture, reoxygenation 30 min: Example 1 at 3 × 10^-7 M, Example 10 at 10^-7 M, Example 13 at 7 × 10^-7 M; for Contracture, hypoxia 10 min: control 23.7 ± 6.8; for Contracture, hypoxia 30 min: control 33.7 ± 8.9; for Contracture, hypoxia 60 min: control 32.3 ± 7.4; for Contracture, reoxygenation 15 min: control 20.6 ± 7.8; for Contracture, reoxygenation 30 min: control 12.3 ± 6.1
Procedure: The hearts of male Wistar rats (325-375 g--Charles River breed) anaesthetized by the intraperitoneal route with sodium pentobarbital (30 mg/kg) are removed after the injection of heparin i.v. (1 ml/kg) and rapidly perfused by the Langendorff technique at a constant pressure of 76 mmhg and stimulated electrically at 5 Hz. The isovolumetric contractions are recorded by way of a small polyethylene balloon connected to a pressure sensor (P23-Gould) introduced into the left ventricle and inflated so as to obtain a diastolic pressure of approximately 10 mmhg. The physiological solution used, maintained at 37° C., has the following composition (mM): NaCl 118; KCl 4.7; KH2 PO4 1.2; MgCl2 1.2; CaCl2 1.3; NaHCO3 25; glucose 8, pH 7.4/95% O2 +5% CO2.
After a period of stabilization of from 15 to 30 minutes, the heart is subjected to hypoxia for 60 minutes (effected with 95% N2 and 5% CO2; PO2 <40 mmHg), followed by reoxygenation for 30 minutes; the compound is added to the incubation medium 15 minutes before and during the period of hypoxia.

Row | Structure (SMILES) | IC50 (human LDLs) [nM] | IC50 (rat aorta) [nM] | activity at 10 µM (cardiac cells) [%] | activity at 1 µM (cardiac cells) [%] | activity at 0.1 µM (cardiac cells) [%] | minimal effective concentration (cardiac cells) [µM] | functional recovery of the hearts during reoxygenation (isolated hearts of rats) | reduction of the developing contracture at the end of 30 minutes reoxygenation (isolated hearts of rats) | Contracture, hypoxia 10 min (isolated hearts of rats) [mm Hg] | Contracture, hypoxia 30 min (isolated hearts of rats) [mm Hg] | Contracture, hypoxia 60 min (isolated hearts of rats) [mm Hg] | Contracture, reoxygenation 15 min (isolated hearts of rats) [mm Hg] | Contracture, reoxygenation 30 min (isolated hearts of rats) [mm Hg]
1 | COc1ccc(CN2CCN(CCCSc3cc(C(C)(C)C)c(O)c(C(C)(C)C)c3)CC2)c(OC)c1OC [Example 7, 4-(2,3,4-trimethoxybenzyl)-I-[3-(4-hydroxy-3,5-di-tert.-butylphenylthio)propyl]piperazine] | 600 | – | 27.9 ± 3.4 | 19.3 ± 0.9 | 85.9 ± 1.7 | – | – | – | – | – | – | – | –
2 | COc1ccc(CN2CCN(CC(O)COc3cc(C(C)(C)C)c(O)c(C(C)(C)C)c3)CC2)c(OC)c1OC (stereo not drawn) [Example 5, 4-(2,3,4-trimethoxybenzyl)-l-[3-(4-hydroxy-3,5-di-tert.-butylphenoxy)-2-hydroxypropyl]piperazine] | 900 | – | – | – | – | – | – | – | – | – | – | – | –
3 | COc1ccc(CN2CCN(CCCCCOc3cc(C(C)(C)C)c(O)c(C(C)(C)C)c3)CC2)c(OC)c1OC [Example 8, 4-(2,3,4-trimethoxybenzyl)-l-[5-(4-hydroxy-3,5-di-tert.-butylphenoxy)pentyl]piperazine] | 1000 | – | 27.2 ± 2 | 21.6 ± 4.2 | 91.4 ± 3.1 | – | – | – | – | – | – | – | –
4 | COc1ccc(CN2CCN(CCC(C)(C)Sc3cc(C(C)(C)C)c(O)c(C(C)(C)C)c3)CC2)c(OC)c1OC [Example 2, 4-(2,3,4-trimethoxybenzyl)-1-[3-(4-hydroxy-3,5-di-tert.-butylphenylthio)-3,3-dimethylpropyl]piperazine] | 3000 | – | – | – | – | – | – | – | – | – | – | – | –
5 | COc1ccc(CN2CCN(CC(O)CSc3cc(C(C)(C)C)c(O)c(C(C)(C)C)c3)CC2)c(OC)c1OC (centres unmarked) [Example 6, 4-(2,3,4-trimethoxybenzyl)-I-[3-(4-hydroxy-3,5-di-tert.-butylphenylthio)-2-hydroxypropyl]piperazine] | 300 | 2700 | 8.3 ± 1.4 | 7.7 ± 0.1 | 99.5 ± 7.5 | – | – | – | – | – | – | – | –
6 | COc1ccc(CN2CCN(CCCc3cc(C(C)(C)C)c(O)c(C(C)(C)C)c3)CC2)c(OC)c1OC [Example 4, 4-(2,3,4-trimethoxybenzyl)-l-[3-(4-hydroxy-3,5-di-tert.-butylphenyl)propyl]piperazine] | 2000 | – | 10.2 ± 3.1 | 22.3 ± 6.5 | 103 ± 12 | – | – | – | – | – | – | – | –
7 | COc1ccc(CN2CCN(CC(C)(C)CSc3cc(C(C)(C)C)c(O)c(C(C)(C)C)c3)CC2)c(OC)c1OC [Example 12, 4-(2,3,4-trimethoxybenzyl)-l-[3-(4-hydroxy-3,5-di-tert.-butylphenylthio)-2,2-dimethylpropyl]piperazine] | 800 | – | – | – | – | – | – | – | – | – | – | – | –
8 | COc1ccc(CN2CCN(CCCCCSc3cc(C(C)(C)C)c(O)c(C(C)(C)C)c3)CC2)c(OC)c1OC [Example 9, 4-(2,3,4-trimethoxybenzyl)-l-[5-(4-hydroxy-3,5-di-tert.-butylphenylthio)pentyl]piperazine] | 80 | – | 33.3 ± 6.6 | 15.2 ± 2 | 53 ± 5.5 | ≥ 0.1 | – | – | – | – | – | – | –

Further lines, with some results ahead:

Row | IC50 (human LDLs) [nM] | IC50 (rat aorta) [nM] | Structure (SMILES) | activity at 10 µM (cardiac cells) [%] | activity at 1 µM (cardiac cells) [%] | activity at 0.1 µM (cardiac cells) [%] | minimal effective concentration (cardiac cells) [µM] | functional recovery of the hearts during reoxygenation (isolated hearts of rats) | reduction of the developing contracture at the end of 30 minutes reoxygenation (isolated hearts of rats) | Contracture, hypoxia 10 min (isolated hearts of rats) [mm Hg] | Contracture, hypoxia 30 min (isolated hearts of rats) [mm Hg] | Contracture, hypoxia 60 min (isolated hearts of rats) [mm Hg] | Contracture, reoxygenation 15 min (isolated hearts of rats) [mm Hg] | Contracture, reoxygenation 30 min (isolated hearts of rats) [mm Hg]
9 | 600 | – | COc1ccc(CN2CCN(CC(O)COc3cc(C)c(O)c(C)c3C)CC2)c(OC)c1OC (stereo not drawn) [Example 11, 4-(2,3,4-trimethoxybenzyl)-l-[3-(4-hydroxy-2,3,5-trimethylphenoxy)-2-hydroxypropyl]piperazine] | 18 ± 2.9 | 70.9 ± 8.3 | 114 ± 5.2 | – | – | – | – | – | – | – | –
10 | 90 | 5000 | COc1ccc(CN2CCN(CCCOc3cc(C)c(O)c(C)c3C)CC2)c(OC)c1OC [Example 1, 4-(2,3,4-trimethoxybenzyl)-1-[3-(4-hydroxy-2,3,5-trimethylphenoxy)propyl]piperazine] | 13.9 ± 5.3 | 55.4 ± 6.4 | 70.4 ± 2.5 | ≥ 0.1 | more than 70% | more than 70% | 21.0 ± 5.8 | 22.5 ± 2.5 | 21.0 ± 3.9 | 12.5 ± 5.1 | 2.5 ± 2.5
11 | 70 | 4300 | COc1ccc(CN2CCN(CC(O)CSc3cc(C)c(O)c(C)c3C)CC2)c(OC)c1OC (stereo not drawn) [Example 13, 4-(2,3,4-trimethoxybenzyl)-l-[3-(4-hydroxy-2,3,5-trimethylphenylthio)-2-hydroxypropyl)piperazine] | 15.1 ± 0.6 | 64.7 ± 0.4 | 100 ± 4.8 | – | more than 70% | more than 70% | 11.0 ± 4.4 | 15.0 ± 6.1 | 13.5 ± 6.3 | 6.0 ± 6.0 | 3.5 ± 3.5
12 | 500 | – | COc1ccc(CN2CCN(CCCOc3cc(C(C)(C)C)c(O)c(C(C)(C)C)c3)CC2)c(OC)c1OC [Example 3, 4-(2,3,4-trimethoxybenzyl)-l-[3-(4-hydroxy-3,5-di-tert.-butylphenoxy)propyl]piperazine] | 37.6 ± 2.7 | 16.9 ± 1.1 | 72.6 ± 5.7 | ≥ 0.1 | – | – | – | – | – | – | –
